Assay results taken from PubChem BioAssay AID248 (DTP/NCI, 2004).
Several values for one entry are separate records, joined by “and”; a condition that tells them apart may be missing. Equal values may be shown once. Inconclusive results and toxic doses are left out.

Tested on: L1210 leukemia ip in BDF1 mice, survival T/C
Experiment: NCI In Vivo Anticancer Drug Screen. Data for tumor model L1210 Leukemia (intraperitoneal) in B6D2F1 (BDF1) mice
Conditions: endpoint: mean survival time, higher = longer survival
How it was run: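 Mice bearing the transplanted tumor received compound or vehicle. Survival of the treated group was divided by that of the vehicle-treated control group to give the ratio.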

[1] = dose: 50.0 mg/kg/injection, schedule: Q01DX009 (ip), vehicle: Klucel (hydroxypropylcellulose) (HPC)
[2] = dose: 50.0 mg/kg/injection, schedule: Q04DX003 (ip), vehicle: Klucel (hydroxypropylcellulose) (HPC)
[3] = dose: 100.0 mg/kg/injection, schedule: Q01DX009 (ip), vehicle: saline
[4] = dose: 100.0 mg/kg/injection, schedule: Q04DX003 (ip), vehicle: Klucel (hydroxypropylcellulose) (HPC)
[5] = dose: 200.0 mg/kg/injection, schedule: Q01DX009 (ip), vehicle: saline
[6] = dose: 200.0 mg/kg/injection, schedule: Q04DX003 (ip), vehicle: Klucel (hydroxypropylcellulose) (HPC)
[7] = dose: 400.0 mg/kg/injection, schedule: Q01DX009 (ip), vehicle: saline
[8] = dose: 400.0 mg/kg/injection, schedule: Q04DX003 (ip), vehicle: Klucel (hydroxypropylcellulose) (HPC)
[9] = dose: 100.0 mg/kg/injection, schedule: Q01DX009 (ip), vehicle: saline with Tween-80
[10] = dose: 100.0 mg/kg/injection, schedule: Q04DX003 (ip), vehicle: saline with Tween-80
[11] = dose: 200.0 mg/kg/injection, schedule: Q01DX009 (ip), vehicle: saline with Tween-80
[12] = dose: 200.0 mg/kg/injection, schedule: Q04DX003 (ip), vehicle: saline with Tween-80
[13] = dose: 100.0 mg/kg/injection, schedule: Q04DX002 (ip), vehicle: Klucel (hydroxypropylcellulose) (HPC)
[14] = dose: 200.0 mg/kg/injection, schedule: Q04DX002 (ip), vehicle: Klucel (hydroxypropylcellulose) (HPC)
[15] = dose: 400.0 mg/kg/injection, schedule: Q04DX002 (ip), vehicle: Klucel (hydroxypropylcellulose) (HPC)
[16] = dose: 100.0 mg/kg/injection, schedule: Q04DX003 (ip), vehicle: saline
[17] = dose: 200.0 mg/kg/injection, schedule: Q04DX003 (ip), vehicle: saline
[18] = dose: 100.0 mg/kg/injection, schedule: Q01DX001 (ip), vehicle: Klucel (hydroxypropylcellulose) (HPC)
[19] = dose: 200.0 mg/kg/injection, schedule: Q01DX001 (ip), vehicle: Klucel (hydroxypropylcellulose) (HPC)

With `CS(=O)(=O)Nc1ccc(Nc2c3ccccc3nc3cc([N+](=O)[O-])ccc23)cc1` the T/C (dose: 0.02 mg/kg/injection, schedule: Q01DX009 (ip), vehicle: saline) was 118 % of control, the T/C (dose: 0.1 mg/kg/injection, schedule: Q01DX009 (ip), vehicle: acetone) was 119 % of control and the T/C (dose: 0.15 mg/kg/injection, schedule: Q01DX009 (ip), vehicle: acetone) was 112 % of control. For the same compound, the T/C (dose: 0.16 mg/kg/injection, schedule: Q01DX009 (ip), vehicle: saline) was 153 % of control, the T/C (dose: 0.6 mg/kg/injection, schedule: Q01DX001 (ip), vehicle: acetone) was 116 % of control and the T/C (dose: 0.82 mg/kg/injection, schedule: Q01DX009 (ip), vehicle: acetone) was 151 % of control. The T/C (dose: 1.25 mg/kg/injection, schedule: Q01DX009 (ip), vehicle: saline) was 164 % of control, the T/C (dose: 1.25 mg/kg/injection, schedule: Q01DX009 (sc), vehicle: Klucel (hydroxypropylcellulose) (HPC)) was 113 % of control and the T/C (dose: 1.56 mg/kg/injection, schedule: Q04DX003 (ip), vehicle: saline) was 107 % of control. The T/C (dose: 2.5 mg/kg/injection, schedule: Q01DX009 (ip), vehicle: saline) was 156 % of control and 220 % of control, the T/C (dose: 2.5 mg/kg/injection, schedule: Q01DX009 (sc), vehicle: Klucel (hydroxypropylcellulose) (HPC)) was 118 % of control and the T/C (dose: 3.12 mg/kg/injection, schedule: Q04DX003 (ip), vehicle: saline) was 107 % of control. For the same compound, the T/C (dose: 3.13 mg/kg/injection, schedule: Q01DX001 (ip), vehicle: saline) was 151 % of control, the T/C (dose: 5.0 mg/kg/injection, schedule: Q01DX009 (ip), vehicle: saline) was 184 % of control and the T/C (dose: 6.25 mg/kg/injection, schedule: Q01DX001 (ip), vehicle: saline) was 159 % of control. The T/C (dose: 6.25 mg/kg/injection, schedule: Q04DX003 (ip), vehicle: saline) was 107 % of control, the T/C (dose: 10.0 mg/kg/injection, schedule: Q01DX009 (sc), vehicle: Klucel (hydroxypropylcellulose) (HPC)) was 195 % of control and the T/C (dose: 12.5 mg/kg/injection, schedule: Q01DX001 (ip), vehicle: saline) was 161 % of control. The T/C (dose: 25.0 mg/kg/injection, schedule: Q01DX001 (ip), vehicle: saline) was 240 % of control and the T/C (dose: 100.0 mg/kg/injection, schedule: Q01DX001 (ip), vehicle: saline) was 168 % of control.
For `COC1OC(COS(=O)(=O)c2ccc(C)cc2)C2OC(C)(C)OC12` (centres undefined), the T/C [1] was 107 % of control, the T/C [2] was 92 % of control and the T/C (dose: 100.0 mg/kg/injection, schedule: Q01DX009 (ip), vehicle: Klucel (hydroxypropylcellulose) (HPC)) was 95 % of control. For the same compound, the T/C [3] was 96 % of control, the T/C [4] was 92 % of control and 94 % of control and the T/C (dose: 200.0 mg/kg/injection, schedule: Q01DX009 (ip), vehicle: Klucel (hydroxypropylcellulose) (HPC)) was 104 % of control. For the same compound, the T/C [5] was 91 % of control, the T/C [6] was 92 % of control and 91 % of control and the T/C (dose: 400.0 mg/kg/injection, schedule: Q01DX009 (ip), vehicle: Klucel (hydroxypropylcellulose) (HPC)) was 96 % of control. For the same compound, the T/C [7] was 91 % of control and the T/C [8] was 105 % of control and 91 % of control.
With `Nc1ccc(S(=O)(=O)c2ccc(NCC(=O)O)cc2)cc1` the T/C (dose: 50.0 mg/kg/injection, schedule: Q01DX009 (ip), vehicle: saline with Tween-80) was 105 % of control, the T/C [9] was 101 % of control and the T/C [10] was 89 % of control. The T/C [11] was 92 % of control and the T/C [12] was 92 % of control.
With `Cc1ccc(NS(=O)(=O)c2ccc([N+](=O)[O-])cc2)c(C)c1` the T/C [9] was 98 % of control, the T/C [10] was 88 % of control and the T/C [11] was 101 % of control. For the same compound, the T/C [12] was 89 % of control, the T/C (dose: 400.0 mg/kg/injection, schedule: Q01DX009 (ip), vehicle: saline with Tween-80) was 98 % of control and the T/C (dose: 400.0 mg/kg/injection, schedule: Q04DX003 (ip), vehicle: saline with Tween-80) was 86 % of control.
With `Cc1c(Cl)cc(C(C)C)c(O)c1CN1CCCCC1` the T/C (dose: 222.0 mg/kg/injection, schedule: Q01DX Z (ip), vehicle: saline) was 92 % of control, the T/C (dose: 333.0 mg/kg/injection, schedule: Q01DX Z (ip), vehicle: saline) was 91 % of control and the T/C (dose: 500.0 mg/kg/injection, schedule: Q01DX Z (ip), vehicle: saline) was 91 % of control.
With `COC(=O)c1cc2c(cc1[N+](=O)[O-])OCO2` the T/C [13] was 114 % of control, the T/C [14] was 114 % of control and the T/C [15] was 95 % of control.
In the case of `COC(=O)C1(C)CCC(c2ccc(OC)cc2)C(CC(=O)O)C1=O` (centres undefined), the T/C [3] is reported as 93 % of control, the T/C [16] is reported as 95 % of control and the T/C [17] is reported as 98 % of control. The T/C [7] was 90 % of control and the T/C (dose: 400.0 mg/kg/injection, schedule: Q04DX003 (ip), vehicle: saline) was 93 % of control.
`CCCCCCCCCC(CCCCCCCC)SC(C)=O` (centres undefined) was tested, and the T/C [13] was 108 % of control, the T/C [14] was 103 % of control and the T/C [15] was 103 % of control.
`CN(Cc1cnc2nc(N)nc(N)c2n1)c1ccccc1` was tested, and the T/C (dose: 20.0 mg/kg/injection, schedule: Q01DX009 (ip), vehicle: saline with Tween-80) was 97 % of control, the T/C (dose: 40.0 mg/kg/injection, schedule: Q01DX009 (ip), vehicle: saline with Tween-80) was 101 % of control and the T/C (dose: 80.0 mg/kg/injection, schedule: Q01DX009 (ip), vehicle: saline with Tween-80) was 98 % of control.
For `O=S(=O)(C1=Cc2cccc3cccc1c23)c1ccccc1`, the T/C (dose: 100.0 mg/kg/injection, schedule: Q01DX001 (ip), vehicle: acetone) was 101 % of control, the T/C [3] was 94 % of control and the T/C (dose: 100.0 mg/kg/injection, schedule: Q04DX003 (ip), vehicle: acetone) was 105 % of control. The T/C (dose: 200.0 mg/kg/injection, schedule: Q01DX001 (ip), vehicle: acetone) was 92 % of control, the T/C [5] was 96 % of control and the T/C (dose: 200.0 mg/kg/injection, schedule: Q04DX003 (ip), vehicle: acetone) was 105 % of control. For the same compound, the T/C (dose: 400.0 mg/kg/injection, schedule: Q01DX001 (ip), vehicle: acetone) was 93 % of control, the T/C [7] was 103 % of control and the T/C (dose: 400.0 mg/kg/injection, schedule: Q04DX003 (ip), vehicle: acetone) was 97 % of control.
With `Cc1c(C)c([N+](=O)[O-])c(/C=C/C(=O)O)c(C)c1[N+](=O)[O-]` the T/C [4] was 97 % of control and the T/C [6] was 86 % of control.
In the case of `CC(=O)Oc1cc2c(cc1[N+](=O)[O-])OCO2`, the T/C [18] is reported as 104 % of control, the T/C [4] is reported as 94 % of control and the T/C [19] is reported as 94 % of control. The T/C [6] was 93 % of control, the T/C (dose: 400.0 mg/kg/injection, schedule: Q01DX001 (ip), vehicle: Klucel (hydroxypropylcellulose) (HPC)) was 98 % of control and the T/C [8] was 105 % of control.
With `COc1nc(=S)n2[nH]cnc2n1` the T/C (dose: 12.5 mg/kg/injection, schedule: Q01DX009 (ip), vehicle: saline) was 89 % of control, the T/C (dose: 25.0 mg/kg/injection, schedule: Q01DX009 (ip), vehicle: saline) was 94 % of control and the T/C (dose: 50.0 mg/kg/injection, schedule: Q01DX009 (ip), vehicle: saline) was 109 % of control. For the same compound, the T/C (dose: 50.0 mg/kg/injection, schedule: Q04DX003 (ip), vehicle: saline) was 102 % of control, the T/C [16] was 91 % of control and the T/C [17] was 92 % of control.
`O=c1c2ccccc2nc2sc3ccccc3n12` was tested, and the T/C (dose: 100.0 mg/kg/injection, schedule: Q01DX009 (ip), vehicle: other) was 93 % of control, the T/C (dose: 200.0 mg/kg/injection, schedule: Q01DX009 (ip), vehicle: other) was 107 % of control and the T/C (dose: 400.0 mg/kg/injection, schedule: Q01DX009 (ip), vehicle: other) was 103 % of control.
With `CCSCC1OC(n2cnc3c(N)nc(F)nc32)C(O)C1O` (centres undefined) the T/C (dose: 25.0 mg/kg/injection, schedule: Q01DX001 (ip), vehicle: Klucel (hydroxypropylcellulose) (HPC)) was 98 % of control, the T/C (dose: 25.0 mg/kg/injection, schedule: Q01DX009 (ip), vehicle: Klucel (hydroxypropylcellulose) (HPC)) was 98 % of control and the T/C (dose: 25.0 mg/kg/injection, schedule: Q04DX003 (ip), vehicle: Klucel (hydroxypropylcellulose) (HPC)) was 97 % of control. For the same compound, the T/C (dose: 50.0 mg/kg/injection, schedule: Q01DX001 (ip), vehicle: Klucel (hydroxypropylcellulose) (HPC)) was 104 % of control, the T/C [1] was 96 % of control and the T/C [2] was 103 % of control. For the same compound, the T/C [18] was 97 % of control and 102 % of control, the T/C [4] was 92 % of control and the T/C [19] was 86 % of control.
